Assay results from US20240209028A1, “CNP COMPOUNDS” (priority 2022, published 2024).
Like-named read-outs stand apart in the source and are kept apart here. Starred links: 1 amine or outer side, 2 acyl side, 3 side chain; linkers in the order of their positions; H or OH if unused. Positions of bridges follow the written chain, without caps; N, C: chain ends. Residues, ends and D or L forms follow the SMILES beside them. *: point of attachment. C18 diacid = O=C(O)CCCCCCCCCCCCCCCCC(=O)*; γGlu = O=C(O)[C@H](CCC(=O)[*:2])N[*:1]; AEEA = NCCOCCOCC(=O)O

Assay: PK of CNP compounds after i.v. and s.c. administration to rats
Settings: male, Sprague Dawley, rat, in vivo
Procedure: In order to assess the i.v. and s.c. PK/PD profile of CNP compounds of the present invention, formulations of CNP compounds were administered to rats, blood samples taken and exposure and cGMP response measured.
Quantitative plasma analysis of CNP-compounds: Plasma concentrations of CNP compounds were assayed by plasma protein precipitation and analysed by turboflow liquid chromatography mass spectrometry (TF-LC-MS). Calibrators were prepared by spiking either blank rat or minipig plasma with the relevant CNP compound in the range from 0.5 to 2000 nM. Calibrators, plasma blanks or study samples were prepared for TF-LC-MS by protein precipitation by adding three or four volumes of either ethanol or methanol containing 20 nM of internal standard to one volume of sample. For some compounds, formic acid was added to the precipitation reagent (the final concentration was 1% v/v). After the addition of the precipitation reagent, the mixture was centrifuged at 6200 rpm at 4° C. for 30 minutes. After centrifugation, one volume of supernatant was mixed with two volumes of water (with 1% v/v formic acid). The mixture was analysed by TF-LC-MS using a Cyclone turboflow column (0.5×50 mm, ThermoFisher Scientific) and either a XBridge Protein BEH C4 3.5 μm 300 Åor a XBridge Protein BEH C18 3.5 μm 130 Åanalytical column (both were 50×2.1 mm and obtained from Waters). […] The mass spectrometer was operated in positive ionisation mode. A TSQ Altis mass spectrometer (ThermoFisher Scientific) was used as detector in selected reaction monitoring mode (specific transition were optimised for each CNP compound). Linear calibration curves (weighed 1/×2) were used for calculating the concentration in the plasma samples. Quality control samples were included. The deviation between nominal and calculated concentration in the calibrators and quality control samples were below 15%.
Animals and dosing: Groups of 4-6 rats (male, Sprague Dawley, 350 g at arrival, Janvier, France) per compound and route of administration were dosed with a CNP compound formulated either in A) 8 mM sodium phosphate, 250 mM glycerol, 0.007% polysorbate 20, pH 7.4 or B) 5 mM sodium acetate, 250 mM glycerol, 0.007% polysorbate 20, pH 4.0 depending on the respective compound. S.c. dose was 300 nmol/kg, at a concentration of […] resulting in a dosing volume of 0.3 mL/kg, whereas i.v. dose was 100 nmol/kg, at a concentration of […] resulting in a dosing volume of 1 mL/kg.
Sampling: Sublingual blood samples of 250 uL were collected from unanaesthetised rats in EDTA-coated vials (Microvette 600K3E ref #15.1673.100 Sarstedt) at baseline (-1 h before dosing) as well as 5 min (only i.v. dosed groups), 2 h, 6 h, 24 h, 48 h and 72 h (only for exposure analysis) post-dosing. The blood samples were quickly stored on ice and centrifuged (4° C., 8000 RPM, 5 min) within 10 min of collection. Plasma samples of 50 μL were transferred to each micronic tube for either exposure or cGMP analysis, kept on dry ice and stored in a freezer (−20° C.). Rats had access to food (Altromin) and tap water ad libitum.
Analysis: PK parameters were calculated by non-compartment analysis (NCA) using software Phoenix WinNonlin (ver. 8.1 or later, Certara) for each animal. Clearance (Cl) was calculated as: Dose/AUCinf (linear up, log down). […] Bioavailability was calculated as dose normalized AUC's: (AUC(sc)/Dose(sc))/(AUC(iv)/Dose(iv)). Values in the table are means from individual animals (n=4-6 individual animals). The subsequent plots for cGMP plasma concentration versus time are (Y-axis) mean cGMP concentration (n=4-6 individual animals) after IV dosing and (X-axis) nominal plasma sampling time.
Plasma cGMP are reported as the mean.

[1] = iv, i.v., about 100 nmol/kg, read-out: Cl (L/hr/kg), i.v. administration (converted)
[2] = iv, i.v., about 100 nmol/kg, read-out: T½ (hr), i.v. administration (converted)

Compound | clearance (iv, 100 nmol/kg) [L/h/kg] | half-life (iv, 100 nmol/kg) [h] | bioavailability (sc, 300 nmol/kg) [%] | half-life (sc, 300 nmol/kg) [h] | clearance [1] [L/h/kg] | half-life [2] [h] | bioavailability (sc, s.c. bioavailability, about 300 nmol/kg, read-out: F (%), s.c. administration) [%] | half-life (sc, s.c., about 300 nmol/kg, read-out: T½ (hr), s.c. administration (converted)) [h]
CC[C@H](C)[C@@H]1NC(=O)[C@H](CCCNC(=N)N)NC(=O)[C@H](CCC(=O)O)NC(=O)[C@H](CC(C)C)NC(=O)[C@H](CCCCN)NC(=O)[C@H](CC(C)C)NC(=O)CNC(=O)[C@H](Cc2ccccc2)NC(=O)[C@@H](NC(=O)CNC(=O)[C@H](CCCCN)NC(=O)[C@H](CO)NC(=O)[C@H](CC(C)C)NC(=O)CNC(=O)[C@H](CCCCN)NC(=O)[C@H](CCCCN)NC(=O)[C@H](CCC(N)=O)NC(=O)[C@H](C)NC(=O)CNC(=O)[C@H](CCCCN)NC(=O)[C@H](Cc2ccc(O)cc2)NC(=O)[C@H](CCCCN)NC(=O)[C@H](CCCNC(=N)N)NC(=O)[C@H](C)NC(=O)COCCOCCNC(=O)COCCOCCNC(=O)CC[C@H](NC(=O)CCCCCCCCCCCCCCCCC(=O)O)C(=O)O)CSSC[C@@H](C(=O)O)NC(=O)CNC(=O)[C@H](CC(C)C)NC(=O)CNC(=O)[C@H](CO)NC(=O)[C@H](CC(C)C)NC(=O)[C@H](CO)NC(=O)CNC1=O [compound 0776] ({C18 diacid-γGlu-AEEA-AEEA}-ARKYKGAQKKGLSKGCFGLKLERIGSLSGLGC-OH; disulfide 16-32) | 0.00613 | 10.7 | 7.35 | 5.63 |  |  |  | 
CC[C@H](C)[C@@H]1NC(=O)[C@H](CCCNC(=N)N)NC(=O)[C@H](CC(=O)O)NC(=O)[C@H](CC(C)C)NC(=O)[C@@H]2CCCN2C(=O)[C@H](CC(C)C)NC(=O)CNC(=O)[C@H](Cc2ccccc2)NC(=O)[C@@H](NC(=O)CNC(=O)[C@H](CCCCN)NC(=O)[C@H](CO)NC(=O)CNC(=O)CNC(=O)[C@H](CCCCN)NC(=O)[C@H](CCCCN)NC(=O)[C@H](CCC(N)=O)NC(=O)[C@H](C)NC(=O)CNC(=O)[C@H](CCC(=O)O)NC(=O)[C@H](Cc2ccc(O)cc2)NC(=O)COCCOCCNC(=O)COCCOCCNC(=O)CC[C@H](NC(=O)CCCCCCCCCCCCCCCCC(=O)O)C(=O)O)CSSC[C@@H](C(=O)O)NC(=O)CNC(=O)[C@H](CC(C)C)NC(=O)CNC(=O)[C@H](CO)NC(=O)[C@H](CC(C)C)NC(=O)[C@H](CO)NC(=O)CNC1=O [compound 1377] ({C18 diacid-γGlu-AEEA-AEEA}-YEGAQKKGGSKGCFGLPLDRIGSLSGLGC-OH; disulfide 13-29) |  |  |  |  | 0.00747 | 6.29 |  | 
CC[C@H](C)[C@@H]1NC(=O)[C@H](CCCNC(=N)N)NC(=O)[C@H](CC(=O)O)NC(=O)[C@H](CC(C)C)NC(=O)[C@H](CCCCN)NC(=O)[C@H](CC(C)C)NC(=O)CNC(=O)[C@H](Cc2ccccc2)NC(=O)[C@@H](NC(=O)CNC(=O)[C@H](CCCCN)NC(=O)[C@H](CO)NC(=O)[C@H](CC(C)C)NC(=O)CNC(=O)[C@H](CCCCN)NC(=O)[C@H](CCCCN)NC(=O)[C@H](CCC(N)=O)NC(=O)[C@H](C)NC(=O)CNC(=O)[C@H](Cc2c[nH]cn2)NC(=O)[C@H](CCC(=O)O)NC(=O)COCCOCCNC(=O)COCCOCCNC(=O)CC[C@H](NC(=O)CCCCCCCCCCCCCCCCC(=O)O)C(=O)O)CSSC[C@@H](C(=O)O)NC(=O)CNC(=O)[C@H](CC(C)C)NC(=O)CNC(=O)[C@H](CO)NC(=O)[C@H](CC(C)C)NC(=O)[C@H](CO)NC(=O)CNC1=O [compound 1235] | 0.0115 | 6.2 | 65.8 | 6.28 |  |  |  | 
CC[C@H](C)[C@@H]1NC(=O)[C@H](CCCNC(=N)N)NC(=O)[C@H](CC(=O)O)NC(=O)[C@H](CC(C)C)NC(=O)[C@@H]2CCCN2C(=O)[C@H](CC(C)C)NC(=O)CNC(=O)[C@H](Cc2ccccc2)NC(=O)[C@@H](NC(=O)CNC(=O)[C@H](CCCCN)NC(=O)[C@H](CO)NC(=O)[C@@H](NC(=O)CNC(=O)[C@@H](NC(=O)[C@H](Cc2c[nH]cn2)NC(=O)[C@H](CCC(N)=O)NC(=O)[C@H](C)NC(=O)CNC(=O)[C@H](Cc2c[nH]cn2)NC(=O)[C@H](Cc2ccc(O)cc2)NC(=O)[C@H](CCCCN)NC(=O)[C@H](CCCNC(=N)N)NC(=O)[C@H](C)NC(=O)COCCOCCNC(=O)COCCOCCNC(=O)CC[C@H](NC(=O)CC[C@H](NC(=O)CC[C@H](NC(=O)CCCCCCCCCCCCCCCCC(=O)O)C(=O)O)C(=O)O)C(=O)O)[C@@H](C)O)C(C)C)CSSC[C@@H](C(=O)O)NC(=O)CNC(=O)[C@H](CC(C)C)NC(=O)CNC(=O)[C@H](CO)NC(=O)[C@H](CC(C)C)NC(=O)[C@H](CO)NC(=O)CNC1=O [compound 1420] ({C18 diacid-γGlu-γGlu-γGlu-AEEA-AEEA}-ARKYHGAQHTGVSKGCFGLPLDRIGSLSGLGC-OH; disulfide 16-32) |  |  |  |  | 0.00764 | 8.34 | 49.7 | 9.47
CC[C@H](C)[C@@H]1NC(=O)[C@H](CCCNC(=N)N)NC(=O)[C@H](CC(=O)O)NC(=O)[C@H](CC(C)C)NC(=O)[C@@H]2CCCN2C(=O)[C@H](CC(C)C)NC(=O)CNC(=O)[C@H](Cc2ccccc2)NC(=O)[C@@H](NC(=O)CNC(=O)[C@H](CO)NC(=O)[C@H](CO)NC(=O)[C@H](CC(C)C)NC(=O)CNC(=O)[C@H](CCCCN)NC(=O)[C@H](CCCCN)NC(=O)[C@H](CCC(N)=O)NC(=O)[C@H](C)NC(=O)CNC(=O)[C@H](CCC(=O)O)NC(=O)[C@H](Cc2ccc(O)cc2)NC(=O)COCCOCCNC(=O)COCCOCCNC(=O)CC[C@H](NC(=O)CCCCCCCCCCCCCCCCC(=O)O)C(=O)O)CSSC[C@@H](C(=O)O)NC(=O)CNC(=O)[C@H](CC(C)C)NC(=O)CNC(=O)[C@H](CO)NC(=O)[C@H](CC(C)C)NC(=O)[C@H](CO)NC(=O)CNC1=O [compound 1227] ({C18 diacid-γGlu-AEEA-AEEA}-YEGAQKKGLSSGCFGLPLDRIGSLSGLGC-OH; disulfide 13-29) |  |  |  |  | 0.0168 | 3.56 |  | 
CC[C@H](C)[C@@H]1NC(=O)[C@H](CCCNC(=N)N)NC(=O)[C@H](CC(=O)O)NC(=O)[C@H](CC(C)C)NC(=O)[C@@H]2CCCN2C(=O)[C@H](CC(C)C)NC(=O)CNC(=O)[C@H](Cc2ccccc2)NC(=O)[C@@H](NC(=O)CNC(=O)[C@H](CO)NC(=O)[C@H](CO)NC(=O)[C@@H](NC(=O)CNC(=O)[C@@H](NC(=O)[C@H](CCCCN)NC(=O)[C@H](CCC(N)=O)NC(=O)[C@H](C)NC(=O)CNC(=O)[C@H](Cc2c[nH]cn2)NC(=O)[C@H](Cc2ccc(O)cc2)NC(=O)[C@H](CCCCN)NC(=O)[C@H](CCCNC(=N)N)NC(=O)[C@H](C)NC(=O)COCCOCCNC(=O)COCCOCCNC(=O)CC[C@H](NC(=O)CC[C@H](NC(=O)CCCCCCCCCCCCCCCCC(=O)O)C(=O)O)C(=O)O)[C@@H](C)O)C(C)C)CSSC[C@@H](C(=O)O)NC(=O)CNC(=O)[C@H](CC(C)C)NC(=O)CNC(=O)[C@H](CO)NC(=O)[C@H](CC(C)C)NC(=O)[C@H](CO)NC(=O)CNC1=O [compound 1354] ({C18 diacid-γGlu-γGlu-AEEA-AEEA}-ARKYHGAQKTGVSSGCFGLPLDRIGSLSGLGC-OH; disulfide 16-32) |  |  |  |  | 0.00652 | 7.56 |  | 
